According to patent US20240376097A1, “BCL-2 Inhibitor” (BeiGene Ltd., priority 2020, published 2024):
Read-outs that look alike come from different tables or passages of the source.

Legend:
[1] = test system: recombinant human Bcl-2-G101V protein; experiment: Bcl-2-G101V TR-FRET Assay; assay type: binding; conditions: for Ratio of Bcl-2 G101V/WT: ratio of biochemical IC50 Bcl-2 G101V / Bcl-2 WT
Outline: (§1)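 Displacement of ligand from recombinant human Bcl-2-G101V measured by TR-FRET (ex337 nm, em490/520 nm), inhibition derived from the 490/520 ratio across compound titrations. IC50 from four-parameter logistic fit.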

[2] = molecular target: recombinant human Bcl-2-G101V protein (Homo sapiens (Human), UniProt P10415, G101V); experiment: Bcl-2-G101V TR-FRET Assay; assay type: binding; conditions: Bcl-2 G101V mutant, TR-FRET; read-out: Biochemical assay (IC50, nM) Bcl-2 G101V
Outline: as §1

[3] = molecular target: Recombinant human Bcl-2 protein (Homo sapiens (Human), UniProt P10415); experiment: Bcl-2 TR-FRET Assay; assay type: binding
Outline: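 Compounds were pre-incubated with 0.05 nM recombinant Bcl-2 for 0.5 h at room temperature in potassium phosphate buffer, pH 7.5. FITC-Bak peptide (0.5 nM) and Tb-cryptate antibody were then added for 1 h. Percent inhibition from TR-FRET signals gave IC50 values.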

[4] = test system: BCL-2 G101V knock-in cell line H96 (derive from RS4;11); experiment: Bcl 2-G101V Knock-In RS4;11 Cell Proliferation Assay; assay type: cell-based; conditions: Homo sapiens, RS4;11 Bcl-2 G101V knock-in clone H96, 48 hrs, CellTiter-GLO, read-out: Cellular proliferation assay (IC50, nM) RS4
Outline: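 H96, a CRISPR-generated RS4;11 clone carrying BCL2-G101V knock-in (WES/RNA-seq validated), seeded 50,000 per well and exposed 48 h at 37 °C to 10-point dilutions topping at 1 or 10 μM. Viability by CellTiter-Glo luminescence; mean IC50.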

[5] = molecular target: recombinant human Bcl-2 D103Y protein (Homo sapiens (Human), UniProt P10415, D103Y); experiment: Bcl-2-D103Y Biochemical Assay (TR-FRET); assay type: binding; conditions: for IC50: TR-FRET, FITC labeled Bak peptide; for Ratio of Bcl-2 D103Y/Bcl-2 WT: ratio of IC50; for ratio of Bcl-2 D103Y/Bcl-2 wt, compared with F91b in WO2019210828: comparison in words
Outline: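 Recombinant human Bcl-2 D103Y binding to its ligand measured by TR-FRET (ex 337 nm, em 490/520 nm) with increasing compound concentrations. Percent inhibition from the 490/520 nm ratio; IC50 from four-parameter logistic fit.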

[6] = test system: RS4;11 (BCL-2 dependent acute lymphoblastic leukemia cell line); experiment: RS4;11 Cell Proliferation Assay; assay type: cell-based; conditions: Homo sapiens, RS4-11, RS4;11 cells, read-out: Cellular proliferation assay (IC50, nM) RS4
Outline: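 RS4;11 cells, 50,000 per well in RPMI-1640 with 10% FBS, treated 48 h at 37 °C with a 10-point dilution series topping at 1 μM. Viability read by CellTiter-Glo ATP luminescence; mean IC50 reported.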

[7] = Bcl-2 wild type, TR-FRET, read-out: Biochemical assay (IC50, nM) Bcl-2 WT
[8] = wild type Bcl-2, unit inferred, read-out: Bcl-2 WT

SMILES | Ratio of Bcl-2 G101V/WT [1] | IC50 [2] | IC50 [3, 7] | IC50 [3, 8] | IC50 [4] | IC50 [5] | Ratio of Bcl-2 D103Y/Bcl-2 WT [5] | IC50 [6] | ratio of Bcl-2 D103Y/Bcl-2 wt, compared with F91b in WO2019210828 [5] | ratio of IC50 of Bcl-2 G101V/Bcl-2 wt, compared with Example F132b in WO2019210828 and ABT-199 (venetoclax) ([1]; comparison in words)
COc1cccc(CN2CCN(C3CC4(CCN(c5ccc(C(=O)NS(=O)(=O)c6cc7c(c([N+](=O)[O-])c6)N[C@H](C[C@H]6CC[C@H](O)CC6)CO7)c(Oc6cnc7[nH]ccc7c6)c5)CC4)C3)C(c3ccccc3C(C)C)C2)c1 (some centres unmarked) [Example 45] | 4.0 | 0.95 nM | 0.24 nM | 0.24 nM | 3.29 nM | 540 pM | 2.3 | 0.41 nM |  | 
CC(C)c1ccccc1C1CN(Cc2ccoc2)CCN1C1CC2(CCN(c3ccc(C(=O)NS(=O)(=O)c4ccc(NC[C@H]5CC[C@](C)(O)CC5)c([N+](=O)[O-])c4)c(Oc4cnc5[nH]ccc5c4)c3)CC2)C1 (some centres unmarked) [Example 20, 2-((1H-pyrrolo[2,3-b]pyridin-5-yl)oxy)-4-(2-(4-(furan-3-ylmethyl)-2-(2-isopropylphenyl)piperazin-1-yl)-7-azaspiro[3.5]nonan-7-yl)-N-((4-((((1r,4r)-4-hydroxy-4-methylcyclohexyl)methyl)amino)-3-nitrophenyl)sulfonyl)benzamide] | 10.9 | 0.58 nM | 0.053 nM | 0.053 nM | 5.91 nM | 250 pM | 4.6 | 0.62 nM |  | 
CC(C)c1ccccc1[C@@H]1CN(Cc2ccc(F)c(F)c2)CCN1C1CC2(C1)CN(c1ccc(C(=O)NS(=O)(=O)c3ccc(NC[C@H]4CC[C@](C)(O)CC4)c([N+](=O)[O-])c3)c(Oc3cnc4[nH]cc(F)c4c3)c1)C2 [Example 229, 4-(6-((R)-4-(3,4-difluorobenzyl)-2-(2-isopropylphenyl)piperazin-1-yl)-2-azaspiro[3.3]heptan-2-yl)-2-((3-fluoro-1H-pyrrolo[2,3-b]pyridin-5-yl)oxy)-N-((4-((((1r,4r)-4-hydroxy-4-methylcyclohexyl)methyl)amino)-3-nitrophenyl)sulfonyl) benzamide] | 2.5 | 0.96 nM | 0.38 nM | 0.38 nM | 0.53 nM | 450 pM | 1.2 | 0.12 nM |  | 
COc1ccc(CN2CCN(C3CC4(CCN(c5ccc(C(=O)NS(=O)(=O)c6ccc(NC[C@H]7CC[C@](C)(O)CC7)c([N+](=O)[O-])c6)c(Oc6cnc7[nH]ccc7c6)c5)CC4)C3)C(c3ccccc3C3CC3)C2)cc1 (some centres unmarked) [Example 73, 2-((1H-pyrrolo[2,3-b]pyridin-5-yl)oxy)-4-(2-(2-(2-cyclopropylphenyl)-4-(4-methoxybenzyl)piperazin-1-yl)-7-azaspiro[3.5]nonan-7-yl)-N-((4-((((1r,4r)-4-hydroxy-4-methylcyclohexyl)methyl)amino)-3-nitrophenyl)sulfonyl)benzamide] | 7.9 | 0.47 nM | 0.06 nM | 0.06 nM | 2.4 nM | 310 pM | 5.1 | 0.37 nM |  | 
COc1cc(CN2CCN(C3CC4(CCN(c5ccc(C(=O)NS(=O)(=O)c6ccc(NC[C@H]7CC[C@](C)(O)CC7)c([N+](=O)[O-])c6)c(Oc6cnc7[nH]ccc7c6)c5)CC4)C3)C(c3ccccc3C(C)C)C2)cc(OC)c1OC (some centres unmarked) [Example 75, 2-((1H-pyrrolo[2,3-b]pyridin-5-yl)oxy)-N-((4-((((1r,4r)-4-hydroxy-4-methylcyclohexyl)methyl)amino)-3-nitrophenyl)sulfonyl)-4-(2-(2-(2-isopropylphenyl)-4-(3,4,5-trimethoxybenzyl)piperazin-1-yl)-7-azaspiro[3.5]nonan-7-yl) benzamide] | 4.7 | 0.28 nM | 0.059 nM | 0.059 nM | 1.5 nM | 220 pM | 3.6 | 0.35 nM | significantly lower | 
COc1cc(CN2CCN(C3CC4(C3)CN(c3ccc(C(=O)NS(=O)(=O)c5ccc(NCC6CCOCC6)c([N+](=O)[O-])c5)c(Oc5cnc6[nH]ccc6c5)c3)C4)[C@H](c3ccccc3C(C)C)C2)ccc1C1CC1 [Example 319] | 3.3 | 0.85 nM | 0.25 nM | 0.25 nM | 0.84 nM | 420 pM | 1.7 | 0.24 nM |  | 
COc1ccc(CN2CCN(C3CC4(C3)CN(c3ccc(C(=O)NS(=O)(=O)c5ccc(NC[C@H]6CC[C@](C)(O)CC6)c([N+](=O)[O-])c5)c(Oc5cnc6[nH]ccc6c5)c3)C4)C(c3ccccc3C(C)C)C2)cc1 (some centres unmarked) [Example 83, 2-((1H-pyrrolo[2,3-b]pyridin-5-yl)oxy)-N-((4-((((1r,4r)-4-hydroxy-4-methylcyclohexyl)methyl)amino)-3-nitrophenyl)sulfonyl)-4-(6-(2-(2-isopropylphenyl)-4-(4-methoxybenzyl)piperazin-1-yl)-2-azaspiro[3.3]heptan-2-yl) benzamide] | 3.1 | 0.25 nM | 0.079 nM | 0.079 nM | 0.73 nM | 160 pM | 2 | 0.27 nM | significantly lower | much lower
COc1nn(C)cc1CN1CCN(C2CC3(CCN(c4ccc(C(=O)NS(=O)(=O)c5ccc(NC[C@H]6CC[C@](C)(O)CC6)c([N+](=O)[O-])c5)c(Oc5cnc6[nH]ccc6c5)c4)CC3)C2)C(c2ccccc2C(C)C)C1 (some centres unmarked) [Example 71, 2-((1H-pyrrolo[2,3-b]pyridin-5-yl)oxy)-N-((4-((((1r,4r)-4-hydroxy-4-methylcyclohexyl)methyl)amino)-3-nitrophenyl)sulfonyl)-4-(2-(2-(2-isopropylphenyl)-4-((3-methoxy-1-methyl-1H-pyrazol-4-yl)methyl)piperazin-1-yl)-7-azaspiro[3.5]nonan-7-yl)benzamide] | 8.3 | 0.17 nM | 0.02 nM | 0.02 nM | 2 nM | 150 pM | 7.6 | 0.43 nM |  | 
COc1cc(CN2CCN(C3CC4(CCN(c5ccc(C(=O)NS(=O)(=O)c6ccc(NC[C@H]7CC[C@](C)(O)CC7)c([N+](=O)[O-])c6)c(Oc6cnc7[nH]cc(F)c7c6)c5)CC4)C3)[C@H](c3ccccc3C(C)C)C2)cc2c1OCC2 [Example 303] | 2.3 | 0.26 nM | 0.11 nM | 0.11 nM | 0.52 nM | 160 pM | 1.4 | 0.3 nM |  | 
COc1ccc(CN2CCN(C3CC4(CCN(c5ccc(C(=O)NS(=O)(=O)c6ccc(NCC7(F)CCC(C)(O)CC7)c([N+](=O)[O-])c6)c(Oc6cnc7[nH]ccc7c6)c5)CC4)C3)[C@H](c3ccccc3C(C)C)C2)cc1 (stereo partly drawn) [Example 225, (R)-2-((1H-pyrrolo[2,3-b]pyridin-5-yl)oxy)-N-((4-(((1-fluoro-4-hydroxy-4-methylcyclohexyl)methyl)amino)-3-nitrophenyl)sulfonyl)-4-(2-(2-(2-isopropylphenyl)-4-(4-methoxybenzyl)piperazin-1-yl)-7-azaspiro[3.5]nonan-7-yl) benzamide] | 4 | 0.37 nM | 0.092 nM | 0.092 nM | 0.65 nM | 100 pM | 1.1 | 0.13 nM |  | 
CC(C)c1ccccc1C1CN(Cc2ccc3sccc3c2)CCN1C1CC2(CCN(c3ccc(C(=O)NS(=O)(=O)c4ccc(NC[C@H]5CC[C@](C)(O)CC5)c([N+](=O)[O-])c4)c(Oc4cnc5[nH]ccc5c4)c3)CC2)C1 (some centres unmarked) [Example 58, 2-((1H-pyrrolo[2,3-b]pyridin-5-yl)oxy)-4-(2-(4-(benzo[b]thiophen-5-ylmethyl)-2-(2-isopropylphenyl)piperazin-1-yl)-7-azaspiro[3.5]nonan-7-yl)-N-((4-((((1r,4r)-4-hydroxy-4-methylcyclohexyl)methyl)amino)-3-nitrophenyl)sulfonyl)benzamide] | 3.2 | 2 nM | 0.62 nM | 0.62 nM | 7.6 nM | 1800 pM | 2.9 | 0.74 nM | significantly lower | 
